Laboratory results taken from ChEMBL document CHEMBL5518179, “Resveratrol-derived inhibitors of the E3 ubiquitin ligase PELI1 inhibit the metastasis of triple-negative breast cancer” (Eur J Med Chem, 2024).

Target: T1, E3 ubiquitin-protein ligase pellino homolog 1 (Homo sapiens, UniProt Q96FA3)
T1 sequence (Q96FA3 whole entry): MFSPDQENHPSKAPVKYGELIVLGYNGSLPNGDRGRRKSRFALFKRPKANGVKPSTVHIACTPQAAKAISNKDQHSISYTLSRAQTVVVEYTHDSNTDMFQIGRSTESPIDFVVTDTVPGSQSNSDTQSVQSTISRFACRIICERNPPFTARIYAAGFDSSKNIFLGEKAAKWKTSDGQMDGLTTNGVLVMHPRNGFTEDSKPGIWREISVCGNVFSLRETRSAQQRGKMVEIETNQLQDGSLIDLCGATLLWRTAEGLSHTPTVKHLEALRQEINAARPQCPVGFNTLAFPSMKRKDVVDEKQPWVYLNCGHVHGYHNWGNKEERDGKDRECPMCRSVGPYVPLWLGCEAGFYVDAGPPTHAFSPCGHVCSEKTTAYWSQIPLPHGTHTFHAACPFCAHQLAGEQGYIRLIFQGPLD
Assay: Binding affinity to PELI1 FHA domain (unknown origin) expressed in Escherichia coli BL21(DE3) competent cell measured after 1 min by fluorescence quenching assay
Conditions: not given; call rule not given here

SMILES	Kd
O=C(/C=C/c1ccc(/C=C/c2cc(O)cc(O)c2)cc1)N1CCCCC1	Not Active
Oc1cc(O)cc(/C=C/c2ccc(-c3cccc(O)c3)cc2)c1	Not Active
Oc1cc(O)cc(/C=C/c2ccc(-c3ccoc3)cc2)c1	Not Active
NC(=O)/C=C/c1ccc(/C=C/c2cc(O)cc(O)c2)cc1	Not Active
CNC(=O)/C=C/c1ccc(/C=C/c2cc(O)cc(O)c2)cc1	Not Active
Oc1cc(O)cc(/C=C/c2ccc(-c3ccccc3)cc2)c1	Not Active
O=C(/C=C/c1ccccc1)Nc1ccc(O)c(/C=C/c2cc(O)cc(O)c2)c1	Not Active
Oc1ccc(-c2ccc(/C=C/c3cc(O)cc(O)c3)cc2)cc1	Not Active
C/C=C/C(=O)Nc1ccc(/C=C/c2cc(O)cc(O)c2)cc1	Not Active
O=[N+]([O-])c1cccc(-c2ccc(/C=C/c3cc(O)cc(O)c3)cc2)c1	Not Active

Further lines, results first:

Kd	SMILES
Not Active	O=C(/C=C/c1ccccc1)Nc1ccc(/C=C/c2cc(O)cc(O)c2)cc1
Not Active	Oc1cc(O)cc(/C=C/c2ccc(-c3ccsc3)cc2)c1
Not Active	CCCNC(=O)/C=C/c1ccc(/C=C/c2cc(O)cc(O)c2)cc1
Not Active	CN(C)C(=O)/C=C/c1ccc(/C=C/c2cc(O)cc(O)c2)cc1

Same assay, conditions: read-out: Kd

SMILES	Kd [µM]
O=C(/C=C/c1cc(/C=C/c2cc(O)cc(O)c2)ccc1O)N1CCCCC1	37.9
O=C(/C=C/c1ccccc1)Nc1cc(O)ccc1/C=C/c1cc(O)cc(O)c1	51.5
NC(=O)/C=C/c1ccc(O)c(/C=C/c2cc(O)cc(O)c2)c1	55.7
CN(C)C(=O)/C=C/c1cc(O)ccc1/C=C/c1cc(O)cc(O)c1	104
C/C=C/C(=O)Nc1cc(O)ccc1/C=C/c1cc(O)cc(O)c1	86.9
O=c1ccc2ccc(O)c(O)c2o1 [DAPHNETIN]	336
O=C(/C=C/c1ccc(O)c(/C=C/c2cc(O)cc(O)c2)c1)N1CCCCC1	26.9
CNC(=O)/C=C/c1ccccc1	212
CCCNC(=O)/C=C/c1cc(O)ccc1/C=C/c1cc(O)cc(O)c1	70.1

Other lines, results leading:

Kd [µM]	SMILES
125	Oc1ccc(/C=C/c2cc(O)cc(O)c2)cc1 [RESVERATROL]
59.9	CNC(=O)/C=C/c1ccc(O)c(/C=C/c2cc(O)cc(O)c2)c1
64.3	C/C=C/C(=O)Nc1ccc(O)c(/C=C/c2cc(O)cc(O)c2)c1
228	COc1cc(C=O)ccc1O [VANILLIN]
336	O=C(Nc1ccccc1)c1cccnc1 [NICOTINANILIDE]
126	C/C=C/C(=O)Nc1cc(/C=C/c2cc(O)cc(O)c2)ccc1O
42.3	CNC(=O)/C=C/c1cc(/C=C/c2cc(O)cc(O)c2)ccc1O
44.4	CCCNC(=O)/C=C/c1cc(/C=C/c2cc(O)cc(O)c2)ccc1O
96.3	O=C(/C=C/c1cc(O)ccc1/C=C/c1cc(O)cc(O)c1)N1CCCCC1
39.3	CNC(=O)/C=C/c1cc(O)ccc1/C=C/c1cc(O)cc(O)c1
124	O=C(/C=C/c1ccccc1)Nc1cc(/C=C/c2cc(O)cc(O)c2)ccc1O
40.1	NC(=O)/C=C/c1cc(O)ccc1/C=C/c1cc(O)cc(O)c1
